Results as given in PMC8480901 (PLoS ONE, 2021).
Where “and” joins values, the source holds several entries; their conditions need not be identical. Equal values may be shown once.

Tested on: human PBMCs
Test: LPS-induced cytokine and chemokine levels in human PBMC supernatant (Luminex, ELISA)
Type: cell-based
Conditions: for IL-1β % reduction / IL-1β [pg/mL], Mean / IL-1β [pg/mL], individual value / IL-6 % reduction / IL-6 [pg/mL], Mean / IL-6 [pg/mL], individual value / IL-8 % reduction / IL-8 [pg/mL], Mean / IL-8 [pg/mL], individual value / TNF-α % reduction / TNF-α [pg/mL], Mean / TNF-α [pg/mL], individual value: LPS-stimulated human PBMC supernatant

What does the source list for `C[C@@H]1C[C@H]2[C@@H]3CCC4=CC(=O)C=C[C@]4(C)[C@@]3(F)[C@@H](O)C[C@]2(C)[C@@]1(O)C(=O)CO` [Dexamethasone]?
IL-1β % reduction (0.0003 µM): -0.241%; IL-1β [pg/mL], Mean (0.0003 µM): 12816 pg/mL; IL-1β [pg/mL], individual value (0.0003 µM): 13584 pg/mL and 12048 pg/mL; IL-6 % reduction (0.0003 µM): 11%; IL-6 [pg/mL], Mean (0.0003 µM): 31175 pg/mL; IL-6 [pg/mL], individual value (0.0003 µM): 28443 pg/mL and 33908 pg/mL; IL-8 % reduction (0.0003 µM): 3.74%; IL-8 [pg/mL], Mean (0.0003 µM): 2934 pg/mL; IL-8 [pg/mL], individual value (0.0003 µM): 2852 pg/mL and 3016 pg/mL; TNF-α % reduction (0.0003 µM): -22%; TNF-α [pg/mL], Mean (0.0003 µM): 10856 pg/mL; TNF-α [pg/mL], individual value (0.0003 µM): 11484 pg/mL and 10228 pg/mL; IL-1β % reduction (0.001 µM): -2.29%; IL-1β [pg/mL], Mean (0.001 µM): 13078 pg/mL; IL-1β [pg/mL], individual value (0.001 µM): 12492 pg/mL and 13663 pg/mL; IL-6 % reduction (0.001 µM): 15%; IL-6 [pg/mL], Mean (0.001 µM): 29537 pg/mL; IL-6 [pg/mL], individual value (0.001 µM): 27758 pg/mL and 31316 pg/mL; IL-8 % reduction (0.001 µM): 7%; IL-8 [pg/mL], Mean (0.001 µM): 2887 pg/mL; IL-8 [pg/mL], individual value (0.001 µM): 2894 pg/mL and 2879 pg/mL; TNF-α % reduction (0.001 µM): 26%; TNF-α [pg/mL], Mean (0.001 µM): 6648 pg/mL; TNF-α [pg/mL], individual value (0.001 µM): 6422 pg/mL and 6874 pg/mL; IL-1β % reduction (0.003 µM): 3%; IL-1β [pg/mL], Mean (0.003 µM): 12382 pg/mL; IL-1β [pg/mL], individual value (0.003 µM): 12441 pg/mL and 12322 pg/mL; IL-6 % reduction (0.003 µM): 23%; IL-6 [pg/mL], Mean (0.003 µM): 26733 pg/mL; IL-6 [pg/mL], individual value (0.003 µM): 25302 pg/mL and 28163 pg/mL; IL-8 % reduction (0.003 µM): 16%; IL-8 [pg/mL], Mean (0.003 µM): 2739 pg/mL; IL-8 [pg/mL], individual value (0.003 µM): 2727 pg/mL and 2751 pg/mL; TNF-α % reduction (0.003 µM): 36%; TNF-α [pg/mL], Mean (0.003 µM): 5707 pg/mL; TNF-α [pg/mL], individual value (0.003 µM): 6398 pg/mL and 5017 pg/mL; IL-1β % reduction (0.01 µM): 12%; IL-1β [pg/mL], Mean (0.01 µM): 11212 pg/mL; IL-1β [pg/mL], individual value (0.01 µM): 11146 pg/mL and 11278 pg/mL; IL-6 % reduction (0.01 µM): 26%; IL-6 [pg/mL], Mean (0.01 µM): 25776 pg/mL; IL-6 [pg/mL], individual value (0.01 µM): 24216 pg/mL and 27336 pg/mL; IL-8 % reduction (0.01 µM): 23%; IL-8 [pg/mL], Mean (0.01 µM): 2621 pg/mL; IL-8 [pg/mL], individual value (0.01 µM): 2587 pg/mL and 2655 pg/mL; TNF-α % reduction (0.01 µM): 34%; TNF-α [pg/mL], Mean (0.01 µM): 5893 pg/mL; TNF-α [pg/mL], individual value (0.01 µM): 5929 pg/mL and 5857 pg/mL; IL-1β % reduction (0.03 µM): 36%; IL-1β [pg/mL], Mean (0.03 µM): 8206 pg/mL; IL-1β [pg/mL], individual value (0.03 µM): 8428 pg/mL and 7983 pg/mL; IL-6 % reduction (0.03 µM): 46%; IL-6 [pg/mL], Mean (0.03 µM): 19008 pg/mL; IL-6 [pg/mL], individual value (0.03 µM): 18119 pg/mL and 19897 pg/mL; IL-8 % reduction (0.03 µM): 24%; IL-8 [pg/mL], Mean (0.03 µM): 2601 pg/mL; IL-8 [pg/mL], individual value (0.03 µM): 2572 pg/mL and 2630 pg/mL; TNF-α % reduction (0.03 µM): 61%; TNF-α [pg/mL], Mean (0.03 µM): 3547 pg/mL; TNF-α [pg/mL], individual value (0.03 µM): 4619 pg/mL and 2475 pg/mL; IL-1β % reduction (0.1 µM): 49%; IL-1β [pg/mL], Mean (0.1 µM): 6554 pg/mL; IL-1β [pg/mL], individual value (0.1 µM): 6360 pg/mL and 6748 pg/mL; IL-6 % reduction (0.1 µM): 46%; IL-6 [pg/mL], Mean (0.1 µM): 18754 pg/mL; IL-6 [pg/mL], individual value (0.1 µM): 18604 pg/mL and 18905 pg/mL; IL-8 % reduction (0.1 µM): 39%; IL-8 [pg/mL], Mean (0.1 µM): 2364 pg/mL; IL-8 [pg/mL], individual value (0.1 µM): 2111 pg/mL and 2616 pg/mL; TNF-α % reduction (0.1 µM): 76%; TNF-α [pg/mL], Mean (0.1 µM): 2172 pg/mL; TNF-α [pg/mL], individual value (0.1 µM): 1964 pg/mL and 2380 pg/mL; IL-1β % reduction (0.3 µM): 47%; IL-1β [pg/mL], Mean (0.3 µM): 6792 pg/mL; IL-1β [pg/mL], individual value (0.3 µM): 7094 pg/mL and 6491 pg/mL; IL-6 % reduction (0.3 µM): 53%; IL-6 [pg/mL], Mean (0.3 µM): 16544 pg/mL; IL-6 [pg/mL], individual value (0.3 µM): 15027 pg/mL and 18061 pg/mL; IL-8 % reduction (0.3 µM): 26%; IL-8 [pg/mL], Mean (0.3 µM): 2569 pg/mL; IL-8 [pg/mL], individual value (0.3 µM): 2679 pg/mL and 2458 pg/mL; TNF-α % reduction (0.3 µM): 67%; TNF-α [pg/mL], Mean (0.3 µM): 2969 pg/mL; TNF-α [pg/mL], individual value (0.3 µM): 3059 pg/mL and 2880 pg/mL; IL-1β % reduction (1 µM): 47%; IL-1β [pg/mL], Mean (1 µM): 6720 pg/mL; IL-1β [pg/mL], individual value (1 µM): 7115 pg/mL and 6325 pg/mL; IL-6 % reduction (1 µM): 53%; IL-6 [pg/mL], Mean (1 µM): 16339 pg/mL; IL-6 [pg/mL], individual value (1 µM): 14576 pg/mL and 18103 pg/mL; IL-8 % reduction (1 µM): 46%; IL-8 [pg/mL], Mean (1 µM): 2244 pg/mL; IL-8 [pg/mL], individual value (1 µM): 2290 pg/mL and 2198 pg/mL; TNF-α % reduction (1 µM): 74%; TNF-α [pg/mL], Mean (1 µM): 2402 pg/mL; TNF-α [pg/mL], individual value (1 µM): 1732 pg/mL and 3073 pg/mL; all measured LPS-induced cytokines and chemokines in supernatant (human PBMCs, 0.0003-1 µM): dose-dependent reductions
